Values after ≈ are worked out from the molar mass of the structure shown.
Key:
[1] = test system: isolated guinea pig lung strips, Platelet activating factor (PAF); assay: antagonist of PAF-induced contraction of isolated guinea pig lung strips; assay type: cell-based; conditions: Cavia porcellus, read-out: Anticontractile action (lung), PAF: concentration range corresponding to the IC50 value
Description: (§1) 4. Activity as an antagonist of the contraction of isolated guinea pig lung strips
(§2) The test carried out is based on the same principle as the test indicated in the pharmacological test 3; however, lung strips are used here.
(§3) Preparation of the organ sections and experimental procedure:
(§4) The guinea pig is sacrificed under laughing gas anaesthesia. The entire pulmonary tract is exposed starting from the trachea. The lobes of the lung are cut in a circular fashion such that 3 mm wide strips are formed. The strips of the upper lobes are divided in order to obtain a total of six approximately equal size strips. The strips are suspended in the organ baths under a preload of 4 g. The nutrient solutions used are modified Krebs Henseleit solutions. When using "Platelet activating factor" (PAF) as an […], the composition of this solution corresponds to that for the agonist SP in "Test 3"; for the agonist LTD4 a Krebs Henseleit solution as in the case of the agonist KCl (Test 3) is used. 95% by volume O2, 5% by volume CO2 is used for bubbling through the bath; the bath temperature is 37° C. The experimental procedure is carried out in a therapeutically cumulative methodology, using the dosage graduations 1, 3, 6 and 10 μg/ml.
(§5) The experimental animals, organ bath, vehicles and manner of administration correspond to that stated in pharmacological test 3.
(§6) All numerical values are indicated in the unit μg/ml and relate to the concentration range of tested compound of the formula I (see example numbers in Table 1) which is necessary in order to cause a contraction which corresponds to the IC50 value.

[2] = test system: isolated guinea pig trachea, agonist PGF2α; assay: antagonist of PGF2α-induced contraction of isolated guinea pig trachea; assay type: cell-based; conditions: Cavia porcellus, 37° C., read-out: Anticontractile action (trachea), PGF2α: concentration range for dilatation corresponding to ED50 range
Description: (§7) 3. Activity as antagonist of the contraction of isolated guinea pig trachea
(§8) The compounds of the formula I are used as antagonists of the contraction of isolated guinea pig trachea. The agonists employed were PGF2α (Upjohn, Germany), calcium ionophore A23187 (Calbiochem, Bad Soden, Germany), and substance P (American Peptide Comp., USA):
Inhibition of contractions which are induced by this cyclooxygenase product is only possible by competitive antagonism at the receptor or of the subsequent signal pathway.
as §3
(§9) The guinea pig is sacrificed by means of terminal laughing gas anaesthesia. The trachea is exposed along its entire length and cut into 15 individual cartilage rings. 5 rings in each case are tied together to give a chain and fixed in the organ bath under a preload of 3 g. After an equilibration time of 45 minutes, a contraction is produced using the agonist. The antagonist (test preparation) is added cumulatively on the plateau of the maximum. Evaluation is carried out in % force change relative to the contraction maximum. The experimental procedure is carried out at 37° C.; the physiological nutrient solution used is a modified Krebs-Henseleit solution through which is bubbled 95% by volume of O2, 5% by volume of CO2.
(§10) Experimental animals: albino guinea pigs (Hattersheim Animal Breeding Institute, Kastengrund, Germany), weight: 200 to 300 g, sex male or female.
(§11) Vehicle: double-distilled water, ethanol or isopropanol; administration: into the organ bath number of administration: cumulative, in SP individual doses
(§12) All numerical values are indicated in the unit μg/ml and relate to the concentration range of the tested compound of the formula I according to the invention (see example numbers in Table 1) which is necessary in order to cause a dilatation which corresponds to the ED50 range.

[3] = test system: isolated guinea pig trachea, agonist substance P; assay: antagonist of substance P-induced contraction of isolated guinea pig trachea; assay type: cell-based; conditions: Cavia porcellus, individual doses, 37° C., read-out: Anticontractile action (trachea), SP antagonism: concentration range for dilatation corresponding to ED50 range
Description: as §7, §8
The antagonism is possible on the one hand due to specific receptor antagonists, and on the other hand also due to inhibition of the subsequent signal pathway. Preparations which directly or indirectly increase the intracellular concentration of cyclic nucleotides in particular show spasmolytic properties here.
as §3, §9, §10, §11, §12

[4] = test system: isolated guinea pig trachea, agonist calcium ionophore A23187; assay: antagonist of calcium ionophore A23187-induced contraction of isolated guinea pig trachea; assay type: cell-based; conditions: Cavia porcellus, 37° C., read-out: Anticontractile action (trachea), Ca ionophore: concentration range for dilatation corresponding to ED50 range
Description: as §7, §8
b) Calcium ionophore A23187 (Calbiochem, Bad Soden) acts by increased uptake of calcium ions, and an activation of all calcium-dependent signal cascades in the cell. Lipoxygenase inhibitors, in particular, and generally antiinflammatory substances show effects in this model.
as §3, §9, §10, §11, §12

[5] = test system: isolated guinea pig lung strips, leukotriene D4 (LTD4); assay: antagonist of LTD4-induced contraction of isolated guinea pig lung strips; assay type: cell-based; conditions: Cavia porcellus, read-out: Anticontractile action (lung), LTD4: concentration range corresponding to the IC50 value
Description: as §1, §2, §3, §4, §5, §6

soleus muscle = assay: rat muscle function test: muscle weight (atrophy of immobilized extremity); assay type: in vivo, male Wistar rats; conditions: oral, 1x per day for 3 weeks, as a rule 25 mg/kg, difference ≤25% classified as an effect
Description: (§13) 1. Activity in the rat muscle function test
(§14) Male Wistar rats (body weight about 300 g) were kept under standard conditions with feed and water ad libitum. The right rear extremity was immobilized by fitting a kind of "shoe" to the animals under short-term anaesthesia. Two ergonomically fitted halves of the "shoe" were cast from a liquid plastic material which is also used for the production of dental prostheses, these were put onto the animal under brief anaesthesia and joined with the aid of a wire. The material is light but hard, so that the animals cannot gnaw the material, and the "shoe" can be opened at any time to examine the condition of the immobilized extremity. The two halves were moreover padded out with chamois leather in order to avoid compressions and possible injuries due to rubbing. The system also has the advantage that the angle of immobilization is standardized in all animals; this would not be possible with a plaster cast. The chosen angle allows the animals to take up a normal sitting position despite the "shoe" and also to carry the body weight using this extremity. Only complete stretching or bending of the leg is impossible.
In spite of this, a significant decrease in the skeletal muscle mass (atrophy) of the immobilized extremity occurred, to be precise up to -35% in comparison with the contralateral nonimmobilized rear extremity. As the soleus muscle was the most severely affected, the changes in muscle weight after administration of preparation shown in Table 1 relate to this muscle. A difference of ≤25% between the right immobilized and left non-immobilized rear extremity was classified as an effect.
(§15) After 3 weeks' immobilization of the right rear extremity and simultaneous oral administration of test preparations (1× per day using a stomach tube; as a rule 25 mg/kg of body weight, in carboxymethylcellulose, the animals were weighed and anaesthetized with pentobarbital (35 mg/kg i.p.). Functional parameters were measured during direct electrical stimulation of a muscle group (gastrocnemius, plantaris and soleus). This muscle group, merely called "muscle" in the following, was exposed at the ankle tendon and tied to a force transducer via the tendon.

phosphodiesterase III = assay: inhibition of phosphodiesterase III activity; assay type: biochemical; conditions: at 100 μM
Protocol: 5. Inhibition of phosphodiesterase III activity
The test is carried out using phosphodiesterase from Boehringer Mannheim (Mannheim, Germany), Order No. 108 243 according to the method of T. SAEKI, I. SAITO, Biochem. Pharm. 46, No. 5, […], pages 833-839.
All numerical values are indicated in % inhibition of the enzyme activity at 100 μM of the corresponding compound of the formula I.

[6] = test system: muscle group (gastrocnemius, plantaris and soleus) of the immobilized right rear extremity; assay: rat muscle function test: direct electrical stimulation of muscle group after 3 weeks' immobilization; assay type: in vivo, male Wistar rats; conditions: oral, 1x per day for 3 weeks, as a rule 25 mg/kg, ≤-12% classified as active; for Force (force under the contraction curve, right/left difference): isometric stimulation, control difference approx. 25%; for Work (performed work, right/left difference): isotonic stimulation, control approx. -25%
Description: as §13, §14, §15
To determine the contractile force, the muscles were stimulated isometrically, i.e. a preload of 0.5N was applied and the muscle was stimulated by means of a series of electrical pulses, which led to a maximum contraction, every 0.7 sec for 80 msec for a period of 15 min. […] The area under this contraction curve was evaluated and the difference in percent between the right atrophic and left normal muscle compared (force under the contraction curve as difference in percent (Δ%)). The difference in the control group is approximately 25%.
An isotonic muscle stimulation was used to determine the performed work of the muscle over time. In this type of measurement, the shortening of the muscle during contraction is used as a basis. To this end, a preload which corresponds to the body weight was applied to the muscles. A series of stimulation pulses (80 msec) were triggered every 3 sec and the muscle was stimulated for 15 min. The data (contraction force and distance travelled) were converted to the work performed in the unit J using an automated system. The difference in the work performed between the immobilized atrophic and the normal muscle in the control animals was approximately -25%.
Values which are positive indicate that the functional parameters of the immobilized muscle were better than those of the contralateral normal muscle.

[7] = test system: Endotoxin (LPS) from Salmonella abortus equi; assay: effect on endotoxin fatality (LPS-induced septic shock); assay type: in vivo, female NMRI mice; conditions: 25 mg/kg i.p. at the same time as LPS 60 mg/kg i.p.; 72 hours; vs placebo control
Protocol: 2. Test for effect on endotoxin fatality
Individual injections of lipopolysaccharide (LPS), from gram-negative bacteria, lead via a series of various symptoms to septic shock, which usually turns out to be fatal. Endotoxin (LPS) from Salmonella abortus equi in a dose of 60 mg/kg i.p. leads to shock and to death with at most 72 h p.a. (the dose of 60 mg/kg corresponds to approximately 1.20 mg of LPS/animal).
The experimental animals used are female NMRI mice from the Hoechst AG/Hattersheim animal breeding unit having a body weight of 22 to 24 g.
The test substances administered intraperitoneally (i.p.) in an administration volume of 10 ml/kg at the same time as the LPS. The number of surviving animals after 72 hours' LPS administration is indicated in comparison to a placebo control. The number of tested animals per group is 5; dose 25 mg/kg.

| SMILES | IC50 [1] | EC50 [2] | EC50 [3] | EC50 [4] | IC50 [5] | Muscle weight (right/left difference) (soleus muscle) | PDE III Inhibition (phosphodiesterase III) | Force (force under the contraction curve, right/left difference) [6] | Work (performed work, right/left difference) [6] | Inhibition of mortality [7] |
| --- | --- | --- | --- | --- | --- | --- | --- | --- | --- | --- |
| CCOP(=O)(CCCCn1cnc2c1c(=O)n(CC)c(=O)n2C)OCC [Example 4, Diethyl [4-(1-ethyl-3-methylxanthin-7-yl)butyl]phosphonate] | 1 to 3 µg/mL (≈ 2.59 to 7.76 µM) | > 10 µg/mL | 10 to 30 µg/mL (≈ 25.9 to 77.6 µM) | > 10 µg/mL | – | – | – | – | – | – |
| CCCn1c(=O)c2c(ncn2CCCP(=O)(OCC)OCC)n(CCC)c1=O [Example 9, Diethyl [3-(1,3-dipropylxanthin-7-yl)propyl]phosphonate] | – | – | 10 to 30 µg/mL (≈ 24.1 to 72.4 µM) | – | 3 to 6 µg/mL (≈ 7.24 to 14.5 µM) | – | – | – | – | – |
| CCCn1cnc2c1c(=O)n(CCCCCP(=O)(OCC)OCC)c(=O)n2C [Example 17, Diethyl [5-(3-methyl-7-propylxanthin-1-yl)-pentyl]phosphonate] | 1 to 3 µg/mL (≈ 2.41 to 7.24 µM) | – | 30 to 60 µg/mL (≈ 72.4 to 145 µM) | – | 1 to 3 µg/mL (≈ 2.41 to 7.24 µM) | 0 Δ % | 77% | +2 Δ % | -10 Δ % | – |
| CCOP(=O)(CCCCn1c(=O)c2[nH]cnc2n(C)c1=O)OCC [Example 24, Diethyl [4-(3-methylxanthin-1-yl)-butyl]phosphonate] | – | > 10 µg/mL | 30 to 60 µg/mL (≈ 83.7 to 167 µM) | – | – | -20 Δ % | – | +6 Δ % | -5 Δ % | 100% |
| CCCn1cnc2c1c(=O)n(CCCCP(=O)(OCC)OCC)c(=O)n2C [Example 32, Diethyl [4-(3-methyl-7-propyl-xanthin-1-yl)butyl]phosphonate] | 6 to 10 µg/mL (≈ 15 to 25 µM) | – | 10 to 30 µg/mL (≈ 25 to 74.9 µM) | – | 6 to 10 µg/mL (≈ 15 to 25 µM) | 0 Δ % | 65% | -9 Δ % | -1 Δ % | – |
| CCOP(=O)(CCCn1c(=O)c2c(ncn2CC)n(C)c1=O)OCC [Example 34, Diethyl [3-(7-ethyl-3-methylxanthin-1-yl)propyl]phosphonate] | – | – | – | – | – | – | 82% | -5 Δ % | -11 Δ % | 60% |
| CCOP(=O)(CCCn1c(=O)c2c(ncn2CCOC)n(C)c1=O)OCC [Example 35, Diethyl [3-(7-methoxyethyl-3-methylxanthin-1-yl)propyl]phosphonate] | 3 to 6 µg/mL (≈ 7.46 to 14.9 µM) | – | 30 to 60 µg/mL (≈ 74.6 to 149 µM) | > 10 µg/mL | – | – | – | – | – | – |
| CCCn1cnc2c1c(=O)n(CCCP(=O)(OCC)OCC)c(=O)n2C1CC1 [Example 39] | – | – | – | – | 3 to 6 µg/mL (≈ 7.27 to 14.5 µM) | – | 65% | – | – | 100% |
| CCCCn1cnc2c1c(=O)n(CCCP(=O)(OCC)OCC)c(=O)n2CCCC [Example 40, Diethyl [3-(3,7-dibutylxanthin-1-yl)propyl]phosphonate] | – | – | – | – | – | – | – | – | – | 100% |
| CCOP(=O)(CCCCCn1c(=O)c2c(ncn2CC2CC2)n(C)c1=O)OCC [Example 49, Diethyl [5-(7-cyclopropylmethyl-3-methylxanthin-1-yl)pentyl]phosphonate] | – | – | – | – | 3 to 6 µg/mL (≈ 7.03 to 14.1 µM) | -25 Δ % | 57% | -5 Δ % | -5 Δ % | – |

— patent publication US5728686A, “Alkylxanthine phosphonates and alkylxanthine phosphine oxides and their use as pharmaceuticals” (Hoechst Aktiengesellschaft, priority 1996, dated 1998)
